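Dose response: 5 concentrations. Exposure: 48 h. Format: 96-well plates. Endpoint: linear interpolation; highest concentration if not reached. TGI: concentration producing complete growth inhibition.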
Columns and labels:
Assay in all cases: NCI anticancer screen, dose series, 48 h
[1] = test system: MDA-N
[2] = test system: NCI/ADR-RES ovarian
[3] = test system: HT29 colon
[4] = test system: SR leukemia
[5] = test system: OVCAR-3 ovarian
[6] = test system: SF-539 CNS
[7] = test system: A549 NSCLC
[8] = test system: DU-145 prostate
[9] = test system: OVCAR-8 ovarian
[10] = test system: BT-549 breast
[11] = test system: ACHN renal
[12] = test system: PC-3 prostate
[13] = test system: MDA-MB-231 breast
[14] = test system: HOP-62 NSCLC
[15] = test system: SNB-19 CNS
[16] = test system: MALME-3M melanoma
[17] = test system: SNB-75 CNS
[18] = test system: NCI-H460 lung
[19] = test system: NCI-H522 lung
[20] = test system: HS 578T breast
[21] = test system: UO-31 renal
[22] = test system: M14 melanoma
[23] = test system: COLO 205 colon
[24] = test system: A498 renal
[25] = test system: RXF 393 renal
[26] = test system: SK-MEL-28 melanoma
[27] = test system: LOX IMVI melanoma
[28] = test system: SK-OV-3 ovarian
[29] = test system: K-562 leukemia
[30] = test system: SF-268 CNS
[31] = test system: CAKI-1 renal
[32] = test system: SK-MEL-5 melanoma
[33] = test system: MDA-MB-435
[34] = test system: HCC-2998 colon
[35] = test system: OVCAR-4 ovarian
[36] = test system: SW-620 colon
[37] = test system: NCI-H226 lung
[38] = test system: U251 CNS
[39] = test system: IGROV1 ovarian
[40] = test system: NCI-H23 lung
[41] = test system: UACC-257 melanoma
[42] = test system: MOLT-4 leukemia
[43] = test system: 786-0 renal
[44] = test system: TK-10 renal
[45] = test system: HL-60(TB) leukemia
[46] = test system: CCRF-CEM leukemia
[47] = test system: MCF7 breast
[48] = test system: SF-295 CNS
[49] = test system: EKVX NSCLC
[50] = test system: RPMI-8226 leukemia
[51] = test system: HOP-92 NSCLC
[52] = test system: HCT-116 colon
[53] = test system: UACC-62 melanoma
[54] = test system: HCT-15 colon
[55] = test system: SN12C renal
[56] = test system: OVCAR-5 ovarian
[57] = test system: SK-MEL-2 melanoma

Compound: CCOC(=O)NC(OC)(C(F)(F)F)C(F)(F)F
- TGI [1]: > 100 µM
- TGI [2]: > 100 µM
- TGI [3]: > 100 µM
- TGI [4]: > 100 µM
- TGI [5]: > 100 µM
- TGI [6]: > 100 µM
- TGI [7]: > 100 µM
- TGI [8]: > 100 µM
- TGI [9]: > 100 µM
- TGI [10]: > 100 µM
- TGI [11]: > 100 µM
- TGI [12]: > 100 µM
- TGI [13]: > 100 µM
- TGI [14]: > 100 µM
- TGI [15]: > 100 µM
- TGI [16]: > 100 µM
- TGI [17]: > 100 µM
- TGI [18]: > 100 µM
- TGI [19]: > 100 µM
- TGI [20]: > 100 µM
- TGI [21]: > 100 µM
- TGI [22]: > 100 µM
- TGI [23]: > 100 µM
- TGI [24]: > 100 µM
- TGI [25]: > 100 µM
- TGI [26]: > 100 µM
- TGI [27]: > 100 µM
- TGI [28]: > 100 µM
- TGI [29]: > 100 µM
- TGI [30]: > 100 µM
- TGI [31]: > 100 µM
- TGI [32]: > 100 µM
- TGI [33]: > 100 µM
- TGI [34]: > 100 µM
- TGI [35]: > 100 µM
- TGI [36]: > 100 µM
- TGI [37]: > 100 µM
- TGI [38]: > 100 µM
- TGI [39]: > 100 µM
- TGI [40]: > 100 µM
- TGI [41]: > 100 µM
- TGI [42]: > 100 µM
- TGI [43]: > 100 µM
- TGI [44]: > 100 µM
- TGI [45]: > 100 µM
- TGI [46]: > 100 µM
- TGI [47]: > 100 µM
- TGI [48]: > 100 µM
- TGI [49]: > 100 µM
- TGI [50]: > 100 µM
- TGI [51]: > 100 µM
- TGI [52]: > 100 µM
- TGI [53]: > 100 µM
- TGI [54]: > 100 µM

Compound: Nc1[nH]nc2nc3ccccc3nc12
- TGI [1]: > 100 µM
- TGI [2]: > 100 µM
- TGI [55]: > 100 µM
- TGI [3]: > 100 µM
- TGI [4]: 75.2 µM
- TGI [5]: > 100 µM
- TGI [6]: > 100 µM
- TGI [7]: > 100 µM
- TGI [8]: > 100 µM
- TGI [9]: > 100 µM
- TGI [10]: > 100 µM
- TGI [11]: > 100 µM
- TGI [12]: > 100 µM
- TGI [13]: > 100 µM
- TGI [14]: > 100 µM
- TGI [15]: > 100 µM
- TGI [16]: > 100 µM
- TGI [17]: > 100 µM
- TGI [18]: > 100 µM
- TGI [19]: > 100 µM
- TGI [20]: > 100 µM
- TGI [21]: > 100 µM
- TGI [23]: > 100 µM
- TGI [24]: > 100 µM
- TGI [25]: 87.9 µM
- TGI [26]: > 100 µM
- TGI [27]: > 100 µM
- TGI [28]: > 100 µM
- TGI [29]: > 100 µM
- TGI [30]: > 100 µM
- TGI [31]: > 100 µM
- TGI [32]: > 100 µM
- TGI [33]: > 100 µM
- TGI [34]: > 100 µM
- TGI [56]: > 100 µM
- TGI [35]: > 100 µM
- TGI [36]: > 100 µM
- TGI [37]: > 100 µM
- TGI [38]: > 100 µM
- TGI [39]: 99.2 µM
- TGI [40]: > 100 µM
- TGI [41]: > 100 µM
- TGI [42]: > 100 µM
- TGI [44]: > 100 µM
- TGI [45]: > 100 µM
- TGI [46]: > 100 µM
- TGI [47]: > 100 µM
- TGI [48]: > 100 µM
- TGI [49]: > 100 µM
- TGI [50]: > 100 µM
- TGI [51]: > 100 µM
- TGI [52]: > 100 µM
- TGI [57]: > 100 µM
- TGI [53]: > 100 µM
- TGI [54]: > 100 µM

— PubChem BioAssay (NCI)
